From patent publication US20250161477A1, “NOVEL METHODS OF THERAPY” (BIVICTRIX LIMITED, priority 2022, published 2025)

B1: BVX04-a0094-AB4A-1 (CD33xCD56 Bi-Fab ADC) (bispecific antibody, not shown: large carriers)
heavy 1: EVQLVQSGAEVKKPGSSVKVSCKASGYTITDSNIHWVRQAPGQSLEWIGYIYPYNGGTDYNQKFKNRATLTVDNPTNTAYMELSSLRSEDTAFYYCVNGNPWLAYWGQGTLVTVSS
light 1: DIQLTQSPSTLSASVGDRVTIICRASESLDNYGIRFLTWFQQKPGKAPKLLMYAASNQGSGVPSRFSGSGSGTEFTLTISSLQPDDFATYYCQQTKEVPWSFGQGTKLEIK
heavy 2: EVQLVQSGAEVKKPGSSVKVSCKASGGTFTGYYMHWVRQAPGQGLEWMGWINPNSGGTNYAQKFQGRVTMTRDTSISTAYMELSRLRSDDTAVYYCARDLSSGYSGYFDYWGQGTLVTVSS
light 2: DVVMTQSPLSLPVTPGEPASISCRSSQSLLHSNGYNFLDWYLQKPGQSPQLLIYLGSNRASGVPDRFSGSGSGTDFTLKISRVEADDVGVYYCMQSLQTPWTFGHGTKVEIK

Columns and labels:
[1] = tested on: Human CD34+ progenitor cells; experiment: Colony forming unit assay: differentiation of healthy CD34+ progenitor cells to myeloid CD33+ cells
Experimental: Methocult was thawed at 4° C. overnight. Methocult was shaken and allowed to stand at room temperature until all the bubbles had dispersed and aliquoted into 3 mL aliquots. A 6-point dose titration was prepared for each antibody in PBS to achieve the following final concentrations: 10, 3, 1, 0.1, 0.01 and 0 nM. Enough of each dilution was prepared to test activity across duplicate wells. Each titration was pipetted into a 1.5 mL tube. CD34+ cells were thawed at 37° C. and suspended in 2% FBS IMDM. 300 μL of suspension containing 3000 CD34+ cells were pipetted into each 1.5 mL tube containing antibody titration and the solution gently was mixed by pipetting. […] The total volume of antibody dilution added to the cells was 30 μL in all conditions. The cell suspension/conjugate mix was pipetted into a 3 mL aliquot of Methocult, vortexed for 5 seconds and allowed to stand at room temperature until the bubbles had disappeared. Using an 18-gauge blunt needle and 6 mL syringe, 1 mL of cell/conjugate/Methocult mix was transferred to a well of a Smart dish and each condition was tested across duplicate wells. Each plate was rocked to ensure the Methocult covered the entire well surface evenly and then placed in a 37° C., 5% CO2 incubator. The colonies were counted on day 9 and day 14 and the data plotted in Excel.

[2] = target: human CD33 (human) (UniProt P20138); experiment: cell-based or functional assay
[3] = target: human CD56 (human) (UniProt P13591); experiment: cell-based or functional assay
Sequence of human CD56 (human) (P13591 other isoform, or with tags, fused parts or gaps limits assumed): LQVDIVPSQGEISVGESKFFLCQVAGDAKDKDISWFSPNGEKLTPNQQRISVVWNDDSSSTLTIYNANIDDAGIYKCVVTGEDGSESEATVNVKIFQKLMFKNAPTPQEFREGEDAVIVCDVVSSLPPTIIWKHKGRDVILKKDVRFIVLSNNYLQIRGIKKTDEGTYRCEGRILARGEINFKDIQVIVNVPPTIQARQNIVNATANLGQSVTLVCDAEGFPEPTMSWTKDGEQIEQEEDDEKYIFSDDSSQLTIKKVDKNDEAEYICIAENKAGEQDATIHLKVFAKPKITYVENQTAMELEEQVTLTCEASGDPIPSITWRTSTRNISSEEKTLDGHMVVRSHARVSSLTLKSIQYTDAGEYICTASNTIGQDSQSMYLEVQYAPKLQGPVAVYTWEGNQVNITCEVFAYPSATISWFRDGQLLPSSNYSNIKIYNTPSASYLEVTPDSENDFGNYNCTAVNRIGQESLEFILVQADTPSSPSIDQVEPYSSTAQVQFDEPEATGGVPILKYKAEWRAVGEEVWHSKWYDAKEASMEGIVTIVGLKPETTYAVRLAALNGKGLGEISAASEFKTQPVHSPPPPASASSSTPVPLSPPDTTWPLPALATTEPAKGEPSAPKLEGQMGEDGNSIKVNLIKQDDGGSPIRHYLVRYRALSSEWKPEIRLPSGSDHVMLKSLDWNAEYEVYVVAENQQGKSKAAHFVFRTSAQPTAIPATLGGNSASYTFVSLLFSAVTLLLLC

Sequence of human CD33 (human) (P20138 18-364 R69G limits assumed): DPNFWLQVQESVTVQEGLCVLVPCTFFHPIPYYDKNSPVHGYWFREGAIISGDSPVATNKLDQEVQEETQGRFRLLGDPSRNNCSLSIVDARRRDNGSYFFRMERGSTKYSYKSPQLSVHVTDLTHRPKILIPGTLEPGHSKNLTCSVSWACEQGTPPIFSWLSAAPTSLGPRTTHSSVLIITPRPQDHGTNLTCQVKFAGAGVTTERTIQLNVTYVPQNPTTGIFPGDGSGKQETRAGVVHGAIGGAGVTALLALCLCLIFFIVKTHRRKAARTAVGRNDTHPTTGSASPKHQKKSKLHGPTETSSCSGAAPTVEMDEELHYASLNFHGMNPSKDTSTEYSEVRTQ

Molecule | Av. % of Colonies Surviving at 10 nM vs Control ([1]; 9 days of incubation, Experiment 1) | Av. % of Colonies Surviving at 10 nM vs Control ([1]; 9 days of incubation, Experiment 2) | Av. % of Colonies Surviving at 10 nM vs Control ([1]; 14 days of incubation, Experiment 1) | Av. % of Colonies Surviving at 10 nM vs Control ([1]; 14 days of incubation, Experiment 2) | Mean IC50, cell kill assay (WST-1, 96 h) on KASUMI-3 cells (CD33+/CD56+) [2] | Mean IC50, cell kill assay (WST-1, 96 h) on SET-2 cells (CD33+/CD56-) [2] | Mean IC50, cell kill assay (WST-1, 96 h) on KASUMI-3 cells (CD33+/CD56+) [3] | Mean IC50, cell kill assay (WST-1, 96 h) on KE-37 cells (CD33-/CD56+) [3]
GEMTUZUMAB: Gemtuzumab (In House), CD33 monospecific antibody, unconjugated | 102.33% | 113.3% | 100.5% | 82.8% |  |  |  | 
B1 |  |  |  |  | 0.061 nM | > 30 nM | 0.061 nM | > 30 nM
